Experimental data as given in ChEMBL document CHEMBL1201862, “PubChem BioAssay data set” (2004).
Active and inactive are the calls of the source.

What was measured:
[1] = target: Epstein-Barr nuclear antigen 1 (Epstein-Barr virus (strain B95-8) (HHV-4) (Human herpesvirus 4), UniProt P03211); test: inhibition of EBV nuclear antigen 1 DNA binding – biochemical, fluorescence polarization, 1536-well, dose response (AID 2381); set-up: species or system human gammaherpesvirus 4;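 also: fluorescence polarization of a Cy5 DNA probe bound by EBNA-1 protein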
Epstein-Barr nuclear antigen 1, sequence (P03211 whole entry): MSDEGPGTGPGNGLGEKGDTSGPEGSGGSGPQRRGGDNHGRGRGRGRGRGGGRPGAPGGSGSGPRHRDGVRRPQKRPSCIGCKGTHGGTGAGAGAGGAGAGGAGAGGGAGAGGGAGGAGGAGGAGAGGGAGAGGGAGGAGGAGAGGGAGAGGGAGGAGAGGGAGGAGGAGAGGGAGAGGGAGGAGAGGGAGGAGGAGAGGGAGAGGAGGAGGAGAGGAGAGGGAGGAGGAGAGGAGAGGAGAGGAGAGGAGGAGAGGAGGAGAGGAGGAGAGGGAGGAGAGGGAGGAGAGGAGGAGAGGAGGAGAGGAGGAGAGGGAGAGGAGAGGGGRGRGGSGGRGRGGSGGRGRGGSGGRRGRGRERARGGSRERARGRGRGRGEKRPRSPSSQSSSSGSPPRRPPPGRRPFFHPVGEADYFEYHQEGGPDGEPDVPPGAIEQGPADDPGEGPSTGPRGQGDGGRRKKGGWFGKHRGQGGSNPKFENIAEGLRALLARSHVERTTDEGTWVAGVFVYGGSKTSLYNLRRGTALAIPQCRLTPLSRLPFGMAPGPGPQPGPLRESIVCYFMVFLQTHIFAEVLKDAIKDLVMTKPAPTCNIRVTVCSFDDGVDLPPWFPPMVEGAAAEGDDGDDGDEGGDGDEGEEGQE

[2] = target: Lytic switch protein BZLF1 (Epstein-Barr virus (strain B95-8) (HHV-4) (Human herpesvirus 4), UniProt P03206); test: inhibition of BZLF1 ZTA DNA binding – biochemical, fluorescence polarization, Epstein-Barr virus, 1536-well, counter-screen for EBNA-1 inhibitor project, dose response (AID 2377); set-up: species or system human gammaherpesvirus 4;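 also: fluorescence polarization of Cy5-labelled ZRE DNA probe bound by purified Zta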
Lytic switch protein BZLF1, sequence (P03206 whole entry): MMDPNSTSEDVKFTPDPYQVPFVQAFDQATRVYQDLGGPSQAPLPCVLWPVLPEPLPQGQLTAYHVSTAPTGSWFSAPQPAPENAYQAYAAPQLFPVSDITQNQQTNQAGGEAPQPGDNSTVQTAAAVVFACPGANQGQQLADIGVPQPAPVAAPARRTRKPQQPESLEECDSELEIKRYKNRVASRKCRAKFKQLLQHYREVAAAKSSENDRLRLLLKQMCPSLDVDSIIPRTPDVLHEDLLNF

[3] = viability of uninfected HEp-2 cells – cell-based, HTS, cytotoxicity control for RSV inhibitor project, dose response (AID 2410); format: functional; conditions: human respiratory syncytial virus
[4] = target: Cytochrome P450 3A4 (Homo sapiens, UniProt P08684);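 also: CYP3A4 tested as one member of a cytochrome P450 panel screen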
Cytochrome P450 3A4, sequence (P08684 whole entry): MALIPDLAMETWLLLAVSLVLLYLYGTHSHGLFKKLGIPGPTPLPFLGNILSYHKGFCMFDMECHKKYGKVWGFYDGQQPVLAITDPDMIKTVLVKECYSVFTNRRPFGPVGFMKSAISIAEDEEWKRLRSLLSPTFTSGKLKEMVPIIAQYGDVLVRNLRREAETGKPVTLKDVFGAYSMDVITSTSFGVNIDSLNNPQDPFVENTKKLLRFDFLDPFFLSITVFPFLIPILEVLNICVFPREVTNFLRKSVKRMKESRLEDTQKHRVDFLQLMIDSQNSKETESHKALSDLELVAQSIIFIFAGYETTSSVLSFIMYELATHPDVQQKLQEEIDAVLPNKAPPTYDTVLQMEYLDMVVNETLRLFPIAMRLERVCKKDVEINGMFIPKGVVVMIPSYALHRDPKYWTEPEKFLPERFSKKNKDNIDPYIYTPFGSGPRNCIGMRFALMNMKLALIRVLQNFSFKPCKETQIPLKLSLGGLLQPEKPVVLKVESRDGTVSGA

[5] = target: Cytochrome P450 2C9 (Homo sapiens, UniProt P11712)
Cytochrome P450 2C9, sequence (P11712 whole entry): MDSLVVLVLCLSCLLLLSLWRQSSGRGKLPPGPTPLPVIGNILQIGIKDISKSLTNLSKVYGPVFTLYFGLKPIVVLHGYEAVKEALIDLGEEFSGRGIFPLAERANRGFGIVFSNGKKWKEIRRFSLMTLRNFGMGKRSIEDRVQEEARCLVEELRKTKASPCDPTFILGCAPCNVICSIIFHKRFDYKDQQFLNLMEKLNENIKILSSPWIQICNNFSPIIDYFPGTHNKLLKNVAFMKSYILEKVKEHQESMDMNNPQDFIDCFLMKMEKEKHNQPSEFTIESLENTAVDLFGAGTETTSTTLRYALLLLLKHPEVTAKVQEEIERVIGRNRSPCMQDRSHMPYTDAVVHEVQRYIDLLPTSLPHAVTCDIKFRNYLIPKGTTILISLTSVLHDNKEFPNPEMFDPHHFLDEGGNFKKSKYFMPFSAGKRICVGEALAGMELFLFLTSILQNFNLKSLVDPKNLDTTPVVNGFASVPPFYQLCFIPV

[6] = Luminescence-based dose response cell-based high throughput screening assay for cytotoxic compounds using the IEC-6 intestinal epithelial cell line. [Related pubchem assays: 1858 (Summary AID.), 1825 (Counterscreen.), 1907 (Confirmation screen.)]; format: functional
[7] = HEK-293T cell viability reduction – luminescence, B-cell screen hits, cytotoxicity control for BCR NF-kB inhibitor project, dose response (AID 489021); format: functional, cell-based;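 also: HEK-293T cells carrying an NF-kB luciferase reporter; cells exposed to compound for about 14 hours before viability readout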
[8] = NIH3T3 cell viability loss – ATP luminescence, mouse fibroblasts, counter-screen, dose response (AID 2010); format: functional, cell-based;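 also: cells exposed to compound for about 90 hours before reading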
[9] = Trypanosoma cruzi growth suppression in host cells – NIH3T3 host cells, beta-gal luminescence, confirmation (AID 2044); format: functional, cell-based;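 also: intracellular parasites grown in NIH/3T3 mouse fibroblasts as host cells; luminescent beta-galactosidase reporter signal from transgenic T. cruzi replicating inside host cells; inhibitors lower the luminescence signal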
[10] = cells
[11] = luciferase reporter signal suppression in cells – H4 neuroglioma cells, luminescence, dose response (AID 1990); format: functional, cell-based
[12] = alpha-synuclein stem-loop luciferase translation blockers – H4 neuroglioma cells, luminescence, confirmation (AID 1988); format: functional, cell-based
[13] = Luminescence Cell-Based Dose Response HTS to Identify Inhibitors of 5'UTR Stem-Loop Driven Prion Protein mRNA Translation in H4 Neuroglioblastoma Cells. [Related pubchem assays: 1827 (Project Summary), 1813 (Primary HTS)]; format: functional
[14] = A Cell Based Secondary Assay To Explore Cytotoxicity of Compounds that Sensitize Mycobacterium Tuberculosis to Beta-Lactam Antibiotics.; format: functional
[15] = target: T1, Neuropeptide Y receptor type 2 (Homo sapiens, UniProt P49146); format: functional, cell-based;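 also: HEK293 cells expressing the receptor and a CNG channel; stimulus was NPY near EC95 followed by isoproterenol to raise cAMP; antagonist potency measured as restoring cAMP signal that NPY suppresses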
T1 sequence (P49146 whole entry): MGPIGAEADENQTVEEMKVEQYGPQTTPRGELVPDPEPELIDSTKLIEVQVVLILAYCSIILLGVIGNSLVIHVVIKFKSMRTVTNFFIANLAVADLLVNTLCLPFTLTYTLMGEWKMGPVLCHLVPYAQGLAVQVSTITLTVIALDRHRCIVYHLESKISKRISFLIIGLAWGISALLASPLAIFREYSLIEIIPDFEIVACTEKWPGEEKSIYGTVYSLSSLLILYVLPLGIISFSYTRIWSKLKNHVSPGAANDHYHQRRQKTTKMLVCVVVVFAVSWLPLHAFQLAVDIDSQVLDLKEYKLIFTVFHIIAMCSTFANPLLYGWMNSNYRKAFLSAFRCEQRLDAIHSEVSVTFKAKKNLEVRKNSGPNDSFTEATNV

[16] = target: T2, Neuropeptide Y receptor type 1 (Homo sapiens, UniProt P25929); format: functional;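 also: HEK293 cells with a CNG channel challenged with NPY then isoproterenol; potency as antagonist that reverses NPY suppression of cAMP signal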
T2 sequence (P25929 whole entry): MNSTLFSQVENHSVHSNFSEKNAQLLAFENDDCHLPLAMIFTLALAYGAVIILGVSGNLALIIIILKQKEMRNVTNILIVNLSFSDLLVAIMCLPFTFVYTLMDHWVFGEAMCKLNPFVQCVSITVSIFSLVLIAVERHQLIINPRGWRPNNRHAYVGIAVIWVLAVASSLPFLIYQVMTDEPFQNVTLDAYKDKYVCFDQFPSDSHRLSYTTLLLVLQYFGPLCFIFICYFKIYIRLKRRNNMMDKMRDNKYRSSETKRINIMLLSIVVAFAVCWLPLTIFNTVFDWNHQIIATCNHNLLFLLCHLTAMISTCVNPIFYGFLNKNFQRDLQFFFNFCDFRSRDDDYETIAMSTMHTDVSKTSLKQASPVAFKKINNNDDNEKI

[17] = target: T3, Calpain-2 catalytic subunit (Sus scrofa, UniProt P43367); test: m-calpain protease blockers, concentration series – biochemical, fluorogenic peptide substrate, dose response (AID 1420); format: functional
T3 sequence (P43367 whole entry): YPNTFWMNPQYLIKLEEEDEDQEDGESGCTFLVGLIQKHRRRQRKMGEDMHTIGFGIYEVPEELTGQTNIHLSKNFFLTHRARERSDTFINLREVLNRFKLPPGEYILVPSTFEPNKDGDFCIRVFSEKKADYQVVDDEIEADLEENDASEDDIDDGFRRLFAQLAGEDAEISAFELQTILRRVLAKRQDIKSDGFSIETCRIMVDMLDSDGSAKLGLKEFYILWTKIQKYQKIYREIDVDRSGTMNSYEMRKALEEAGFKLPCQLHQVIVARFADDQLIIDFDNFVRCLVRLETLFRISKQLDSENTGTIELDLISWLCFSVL

[18] = target: T4, NADPH oxidase 1 (Homo sapiens, UniProt Q9Y5S8); format: functional, cell-based;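 also: Cell-based assay with luminescence read-out, IC50 derived from inhibitor dose-response curves; intracellular ROS from endogenous NOX1 in intact HT29 colon cancer cells; potency of inhibitors that lower the ROS luminescence signal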
T4 sequence (Q9Y5S8 whole entry): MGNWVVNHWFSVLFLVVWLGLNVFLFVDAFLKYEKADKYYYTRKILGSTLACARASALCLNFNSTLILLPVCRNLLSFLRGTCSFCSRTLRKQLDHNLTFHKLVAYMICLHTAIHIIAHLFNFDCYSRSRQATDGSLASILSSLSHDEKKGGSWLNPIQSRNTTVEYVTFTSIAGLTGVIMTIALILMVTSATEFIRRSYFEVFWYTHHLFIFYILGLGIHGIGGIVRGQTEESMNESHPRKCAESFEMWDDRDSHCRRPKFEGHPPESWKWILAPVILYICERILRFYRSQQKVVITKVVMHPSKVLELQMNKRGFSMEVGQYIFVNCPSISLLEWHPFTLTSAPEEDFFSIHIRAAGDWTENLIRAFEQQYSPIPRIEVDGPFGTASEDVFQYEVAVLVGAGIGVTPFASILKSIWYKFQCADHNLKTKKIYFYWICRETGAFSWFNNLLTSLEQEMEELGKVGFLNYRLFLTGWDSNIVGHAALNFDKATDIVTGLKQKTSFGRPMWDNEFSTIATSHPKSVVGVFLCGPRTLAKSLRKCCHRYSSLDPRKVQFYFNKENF

[19] = test system: H4; test: Luminescence Cell-Based Dose Response HTS to Identify Activators of 5'UTR Stem-Loop Driven Prion Protein mRNA Translation in H4 Neuroglioblastoma Cells. [Related pubchem assays: 1829 (Project Summary), 1814 (Primary HTS)]; format: functional; conditions: Homo sapiens
[20] = Luminescence Cell-Based Dose Response to Identify Activators of 5'UTR Stem-Loop Driven Prion Protein mRNA Translation in H4-C Neuroglioblastoma Cells. [Related pubchem assays: 1829 (Project Summary), 1814 (Primary HTS)]; format: functional
[21] = Luminescence Cell-Based Dose Response HTS to Identify Activators of Luciferase Translation or Activity in H4 […] Cells. [Related pubchem assays: 1829 (Project Summary), 1814 (Primary HTS)]; format: functional
[22] = Luminescence Cell-Based Dose Confirmation HTS to Identify Activators of 5'UTR Stem-Loop Driven Alpha-Synuclein mRNA Translation in H4 Neuroglioblastoma Cells. [Related pubchem assays: 1829 (Project Summary), 1814 (Primary HTS)]; format: functional
[23] = Luminescence Cell-Based Dose Response to Identify Activators of Luciferase Translation or Activity in H4-C Neuroglioblastoma Cells. [Related pubchem assays: 1829 (Project Summary), 1814 (Primary HTS)]; format: functional
[24] = Luminescence Cell-Based Dose Confirmation to Identify Activators of 5'UTR Stem-Loop Driven Alpha-Synuclein mRNA Translation in H4 Neuroglioblastoma Cells. [Related pubchem assays: 1829 (Project Summary), 1814 (Primary HTS)]; format: functional
[25] = target: T5, Microphthalmia-associated transcription factor (Homo sapiens, UniProt O75030); test: reducers of TRPM1 reporter luminescence, concentration series – cell-based, SK-MEL-5, cherry-picked, set 3, MITF inhibitor project, dose response (AID 493073); format: functional;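 also: SK-MEL-5 melanoma cells with luciferase driven by the MITF target TRPM1 promoter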
T5 sequence (O75030 whole entry): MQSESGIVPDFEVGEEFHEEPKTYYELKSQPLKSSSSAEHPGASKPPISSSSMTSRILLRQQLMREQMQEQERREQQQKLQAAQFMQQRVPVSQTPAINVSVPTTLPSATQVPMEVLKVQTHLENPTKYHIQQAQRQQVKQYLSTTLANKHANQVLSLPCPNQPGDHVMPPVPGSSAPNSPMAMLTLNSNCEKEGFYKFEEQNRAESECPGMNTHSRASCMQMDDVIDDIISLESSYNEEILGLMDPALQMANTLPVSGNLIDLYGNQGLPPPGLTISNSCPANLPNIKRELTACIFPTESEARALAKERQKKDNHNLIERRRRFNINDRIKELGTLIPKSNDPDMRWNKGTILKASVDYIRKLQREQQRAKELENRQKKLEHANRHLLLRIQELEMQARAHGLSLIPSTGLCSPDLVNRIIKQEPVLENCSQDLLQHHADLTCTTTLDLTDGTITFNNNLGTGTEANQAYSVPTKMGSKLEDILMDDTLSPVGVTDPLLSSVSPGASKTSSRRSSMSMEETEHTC

[26] = test system: HT-1080; test: HT1080 cell viability loss – fluorescence readout (AID 620); format: functional, cell-based; conditions: Homo sapiens
[27] = target: Luciferin 4-monooxygenase (Photinus pyralis, UniProt P08659); test: Counter Screen for Luciferase-based Assay Positives. [Related pubchem assays: 620, 618, 411 ]
Luciferin 4-monooxygenase, sequence (P08659 whole entry): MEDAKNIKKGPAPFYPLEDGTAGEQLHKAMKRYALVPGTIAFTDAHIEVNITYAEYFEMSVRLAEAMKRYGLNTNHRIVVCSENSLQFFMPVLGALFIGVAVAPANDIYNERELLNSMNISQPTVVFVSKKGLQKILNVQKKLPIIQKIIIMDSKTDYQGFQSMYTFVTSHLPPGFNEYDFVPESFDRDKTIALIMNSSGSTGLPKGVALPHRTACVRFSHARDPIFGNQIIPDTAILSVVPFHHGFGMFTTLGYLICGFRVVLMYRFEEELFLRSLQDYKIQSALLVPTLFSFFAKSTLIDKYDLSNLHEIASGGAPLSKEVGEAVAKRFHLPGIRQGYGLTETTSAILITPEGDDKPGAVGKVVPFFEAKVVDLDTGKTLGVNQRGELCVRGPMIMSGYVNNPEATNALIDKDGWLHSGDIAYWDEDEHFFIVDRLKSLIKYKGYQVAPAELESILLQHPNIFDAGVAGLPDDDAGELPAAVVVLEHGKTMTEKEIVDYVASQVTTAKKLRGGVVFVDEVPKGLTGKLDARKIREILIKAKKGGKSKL

With N#Cc1ccccc1OCC(=O)Nc1c(C(=O)C2CC2)oc2ccccc12 the IC50 [1] was 11 µM (not active) and the IC50 [2] was > 111 µM (not active).
With C(=N\Nc1nc(Nc2ccccc2)nc(N2CCOCC2)n1)/c1c[nH]c2ccccc12 the CC50 [3] was 28.8 µM (active), the AC50 [4] was 15.8 µM (inconclusive) and the AC50 [5] was 17.8 µM (inconclusive). For the same compound, the IC50 [6] was 0.244 µM (active), the IC50 [7] was 28.5 µM (inactive) and the EC50 [8] was 0.536 µM (active). For the same compound, the EC50 [9] was < 0.1 µM (active) and the EC50 [10] was 0.018 µM (active).
For CC(C)CCSc1nc(N2CCOCC2)c2c(c1C#N)CC(C)(C)OC2, the EC50 [11] was 16.4 µM (active), the EC50 [12] was 31.3 µM (active) and the EC50 [8] was > 60 µM (not active). The EC50 [9] was 1.3 µM (active), the EC50 [13] was > 120 µM (not active) and the CC50 [14] was > 40 µM (active).
For O=P(CCCCCCCCCP(=O)(c1ccccc1)c1ccccc1)(c1ccccc1)c1ccccc1, the IC50 [15] was 1.65 µM (active), the EC50 [8] was > 60 µM (not active) and the EC50 [9] was 1.29 µM (active). For the same compound, the IC50 [16] was 10.4 µM (not active) and the IC50 [17] was 12 µM (not active).
With COc1ccc2c(c1)Sc1ccc(Cl)cc1N2 the IC50 [18] was 0.177 µM (active).
For Cc1ccc(CNC(=O)c2ccc(Cn3cc(-c4ccc(C)cc4)nc3-c3ccncc3)cc2)cc1, the EC50 [19] was 1.33 µM (active), the EC50 [20] was > 12 µM (not active) and the EC50 [21] was < 0.1 µM (active). For the same compound, the EC50 [22] was < 0.1 µM (active), the EC50 [23] was 0.656 µM (active) and the EC50 [24] was 1.12 µM (active).
In the case of O=C1c2ccccc2S(=O)(=O)N1Cc1nc2ccccc2s1, the EC50 [11] is reported as 7.48 µM (active), the AC50 [25] is reported as 2.7 µM (active) and the EC50 [12] is reported as 4.21 µM (active). The EC50 [26] was > 50 µM (not active), the EC50 [27] was 7.63 µM (active) and the EC50 [13] was 7.02 µM (active).
In the case of C=C(NNc1c(Cl)c(Cl)nc(C(=O)O)c1Cl)c1ccc(N2CCOCC2)cc1, the IC50 [18] is reported as > 17 µM (not active).
For O=C(Nc1cccc(Cn2cccn2)c1)c1cc2c(s1)CCCC2, the EC50 [19] was 10.9 µM (active), the EC50 [20] was > 12 µM (not active) and the EC50 [21] was < 0.1 µM (active). For the same compound, the EC50 [23] was 0.853 µM (active) and the EC50 [24] was 0.651 µM (active).
With Cc1ccc2nc3c(O)n(Cc4ccco4)cnc-3c2c1 the IC50 [1] was > 148 µM (not active) and the IC50 [2] was > 111 µM (not active).
